Data: patent US7202261B2, “Calcilytic compounds” (NPS Pharmaceuticals, Inc., priority 1996, dated 2007)
Counter-ions that a name gives are not always drawn.

Molecular target: T1, human calcium receptor (Homo sapiens, UniProt P41180)
T1 construct: expressed in transfected cells
T1 sequence (P41180 20-1078): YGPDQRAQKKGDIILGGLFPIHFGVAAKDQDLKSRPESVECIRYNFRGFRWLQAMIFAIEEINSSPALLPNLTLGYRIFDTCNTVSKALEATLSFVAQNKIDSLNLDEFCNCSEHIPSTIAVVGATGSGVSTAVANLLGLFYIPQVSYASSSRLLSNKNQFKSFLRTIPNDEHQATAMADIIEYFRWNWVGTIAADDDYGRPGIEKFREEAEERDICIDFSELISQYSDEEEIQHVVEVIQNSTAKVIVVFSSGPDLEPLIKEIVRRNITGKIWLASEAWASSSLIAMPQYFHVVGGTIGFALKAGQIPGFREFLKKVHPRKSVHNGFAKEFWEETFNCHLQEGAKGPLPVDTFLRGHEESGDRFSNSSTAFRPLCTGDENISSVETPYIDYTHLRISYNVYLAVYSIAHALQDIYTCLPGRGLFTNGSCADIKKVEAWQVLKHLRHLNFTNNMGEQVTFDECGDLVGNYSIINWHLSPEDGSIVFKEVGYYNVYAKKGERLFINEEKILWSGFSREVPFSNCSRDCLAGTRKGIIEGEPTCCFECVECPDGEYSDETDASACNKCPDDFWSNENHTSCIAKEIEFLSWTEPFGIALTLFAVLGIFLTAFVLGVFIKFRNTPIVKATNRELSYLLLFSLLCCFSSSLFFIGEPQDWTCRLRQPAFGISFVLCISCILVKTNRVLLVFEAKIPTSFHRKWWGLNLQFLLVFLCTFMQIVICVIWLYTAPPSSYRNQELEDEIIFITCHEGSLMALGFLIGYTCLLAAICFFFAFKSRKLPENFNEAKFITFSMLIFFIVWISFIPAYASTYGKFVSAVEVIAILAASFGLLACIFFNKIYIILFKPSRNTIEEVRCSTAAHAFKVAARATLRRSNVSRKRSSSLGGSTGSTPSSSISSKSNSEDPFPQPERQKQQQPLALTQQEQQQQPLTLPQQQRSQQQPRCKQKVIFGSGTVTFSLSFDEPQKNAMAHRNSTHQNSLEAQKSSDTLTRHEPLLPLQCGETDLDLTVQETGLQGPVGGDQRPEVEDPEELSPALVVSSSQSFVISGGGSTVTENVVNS
Assay: Calcium Receptor Inhibitor Assay
Format: cell-based
Details: HEK 293 4.0–7 cells stably expressing the human calcium receptor; fluo-3; read-out: IC50 for blocking increases of intracellular Ca2+ elicited by extracellular Ca2+
Procedure, shortened: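 Intracellular Ca^2+ measured with fluo-3 at 37° C in stirred cell suspension. Buffer held 1 mM CaCl2 and 1 mg/mL D-glucose. Compound or vehicle added 90 seconds before extracellular Ca^2+ was raised from 1 to 2 mM, and calcilytic activity scored as concentration-dependent block of the intracellular Ca^2+ rise.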

Compound	IC50
CCCc1ccccc1OCC(O)CNC(C)(C)Cc1ccc(OC)cc1 (stereo not drawn) [Compound 148, N-[2-hydroxy-3-(2-n-propylphenoxy)propyl]-1,1-dimethyl-2-(4-methoxyphenyl)ethylamine Hydrochloride]	< 1000 nM
CCCc1ccc(OCC(O)CNC(C)(C)Cc2ccc(OC)cc2)cc1 (stereo not drawn) [Compound 149, N-[2-hydroxy-3-(4-n-propylphenoxy)propyl]-1,1-dimethyl-2-(4-methoxyphenyl)ethylamine Hydrochloride]	< 1000 nM
CCc1cccc(OCC(O)CNC(C)(C)Cc2ccc(OC)cc2)c1 (stereo not drawn) [Compound 150, N-[2-Hydroxy-3-(3-ethylphenoxy)propyl)-1,1-dimethyl-2-(4-methoxyphenyl)ethylamine Hydrochloride]	< 1000 nM
CCc1ccccc1OCC(O)CNC(C)(C)Cc1ccc(OC)cc1 (stereo not drawn) [Compound 151, N-[2-hydroxy-3-(2-ethylphenoxy)propyl]-1,1-dimethyl-2-(4-methoxyphenyl)ethylamine Hydrochloride]	< 1000 nM
COc1ccc(CC(C)(C)NCC(O)COc2ccc(OC(F)(F)F)cc2)cc1 (stereo not drawn) [Compound 152, N-[2-hydroxy-3-(4-trifluoromethoxyphenoxy)propyl)-1,1-dimethyl-2-(4-methoxyphenyl)ethylamine Hydrochloride]	< 10000 nM
COc1ccc(CC(C)(C)NCC(O)COc2ccccc2C(C)C)cc1 (stereo not drawn) [Compound 153, N-[2-hydroxy-3-(2-iso-propylphenoxy)propyl]-1,1-dimethyl-2-(4-methoxyphenyl)ethylamine Hydrochloride]	< 1000 nM
COc1ccc(CC(C)(C)NCC(O)COc2cccc(OC(F)(F)F)c2)cc1 (stereo not drawn) [Compound 154, N-[2-hydroxy-3-(3-trifluoromethoxyphenoxy)propyl]-1,1-dimethyl-2-(4-methoxyphenyl)ethylamine Hydrochloride]	< 1000 nM
COc1ccc(CC(C)(C)NCC(O)COc2c(Cl)cccc2Cl)cc1 (stereo not drawn) [Compound 155, N-[2-hydroxy-3-(2,6-dichlorophenoxy)propyl]-1,1-dimethyl-2-(4-methoxyphenyl)ethylamine Hydrochloride]	< 10000 nM
COc1ccc(CC(C)(C)NCC(O)COc2cc(C(F)(F)F)cc(C(F)(F)F)c2)cc1 (stereo not drawn) [Compound 156, N-[2-hydroxy-3-(3,5-bistrifluoromethylphenoxy)propyl]-1,1-dimethyl-2-(4-methoxyphenyl)ethylamine Hydrochloride]	< 1000 nM
COc1ccc(CC(C)(C)NCC(O)COc2cc(Cl)cc(OC)c2)cc1 (stereo not drawn) [Compound 157, N-[2-hydroxy-3-(3-chloro-5-methoxyphenoxy)propyl]-1,1-dimethyl-2-(4-methoxyphenyl)ethylamine Hydrochloride]	< 1000 nM
COc1ccc(CC(C)(C)NCC(O)COc2ccccc2[N+](=O)[O-])cc1 (stereo not drawn) [Compound 159, N-[2-hydroxy-3-(2-nitrophenoxy)propyl]-1,1-dimethyl-2-(4-methoxyphenyl)ethylamine Hydrochloride]	< 1000 nM
COc1ccc(CC(C)(C)NCC(O)COc2cccc(C#N)c2)cc1 (stereo not drawn) [Compound 160, N-[2-hydroxy-3-(3-cyanophenoxy)propyl]-1,1-dimethyl-2-(4-methoxyphenyl)ethylamine Hydrochloride]	< 1000 nM
COc1ccc(CC(C)(C)NCC(O)COc2ccc(C#N)cc2)cc1 (stereo not drawn) [Compound 161, N-(2-hydroxy-3-(4-cyanophenoxy)propyl]-1,1-dimethyl-2-(4-methoxyphenyl)ethylamine Hydrochloride]	< 10000 nM
CCCN(CCC)S(=O)(=O)c1ccc(OC[C@H](O)CNC(C)(C)Cc2ccc(OC)cc2)c(Cl)c1Cl [Compound 165, N-[2(R)-Hydroxy-3-[(2,3-dichloro-4-dipropylsulfamoyl)phenoxyl-1-propyl]-N-[1,1-dimethyl-2-(4-methoxyphenyl)ethyl]amine hydrochloride salt]	< 1000 nM
CC(C)(Cc1ccc(Cl)c(Cl)c1)NC[C@@H](O)COc1c(C#N)sc2ccccc12 [Compound 166]	< 1000 nM
COc1ccc(CC(C)(C)NC[C@@H](O)COc2ccc3c(c2)[nH]c2ccccc23)cc1 [Compound 167]	< 1000 nM

System: Parathyroid cells
Assay: not given
Details: read-out: EC50 for mobilization of intracellular calcium; cited from earlier work

Compound	EC50
[H]/N=C(/N)N[C@H]1[C@H](O)[C@@H](O)[C@H](O[C@@H]2O[C@@H](C)[C@](O)(C=O)[C@H]2O[C@@H]2O[C@@H](CO)[C@H](O)[C@@H](O)[C@@H]2NC)[C@@H](N/C(N)=N\[H])[C@@H]1O [streptomycin]	600000 nM
gentamicin	150000 nM
